# “And” between values parts separate entries of the source, which are not always exact repeats. Equal entries are not always repeated. Where two headings read alike, the source gives them in different places.
# Key:
# mice = assay: Histological analysis (H&E) of organs in acute toxicity test; format: in vivo, mouse
# Method: Histological analysis. Organs such as heart, liver, kidney, and brain were excised and fixed in 10% formaldehyde for histological analysis. Their organs were collected and fixed with 4% PFA for 12-18 h, followed by dehydrating using an automatic dehydrator (Leica ASP-300S, Germany) and embedding in paraffin. Then, each sample was coronally cut (4 µm) using a rotatory microtome (Leica RM2245, Germany). The […]
# Primary culture of neuron and microglia. Primary cortical neurons (1.0 × 10^5 cells per well in poly-L-lysine-coated 24-well plate) were obtained from fetal C57BL/6 mice of embryonic day 16–17.5, as previously reported1. After careful removal of meninges, cortical tissues were digested in dulbecco's modified eagle medium (DMEM, Gibco) containing 0.05% trypsin (Gibco) at 37 °C for 20 min. DMEM containing 10% FBS (Gibco) was then added to terminate the digestion. The mixture was homogenized by pipetting 120 times and was subsequently filtered with a 100-μm cell strainer (Biologix) and centrifuged at 1000 rpm for 5 min. Then, the cells were collected and resuspended by DMEM supplemented with 10% FBS (Gibco) and penicillin-streptomycin (Gibco).
# The suspension was seeded into 24-well plates (10^5 cells/ml), and 4 h later, the medium was changed with Neurobasal medium (Gibco) containing 1% […] and 2% B27 supplement. […]
# MCAO/R mice [1] = conditions: mouse, in vivo
# MCAO/R mice [2] = assay: MRI of cerebral infarction after MCAO/R; format: in vivo, mouse; conditions: VK 300 i.p. at 0, 4, 22.5, 46.5 h, T2-weighted
# Method: After MCAO/R, mice were treated with VK ([…], i.p.) at 0, 4, 22.5, and 46.5 h. Mice were deeply anesthetized with 1.5% isoflurane in a mixture of 30% O2 and 69% N2O. The magnetic resonance imaging (MRI) experiments were performed on a horizontal bore 9.4 Tesla scanner operating on a Bruker Avance platform (Bruker 9.4 T Biospec). T2-weighted imaging was used to evaluate the infarct volume. Three mutually perpendicular images were obtained to localize the infarction site. Then, 13–15 T2-weighted axial slices (1 mm thick) covering the entire damage area (field of view = 30 × 30 mm, matrix size = 256 × 256, echo time^3 = 33 ms, repetition time[68] = 3500 ms) were acquired by a spin-echo pulse sequence to delineate anatomical details and calculate qualitative T2 maps[69].
# MCAO/R mice [3] = assay: Longa test; format: in vivo, mouse
# From the text: Mice were graded on a 5-point scale, which was modified from the Longa score.
# MCAO/R mice [4] = assay: Morris water maze test; format: in vivo, mouse; conditions: for Morris water maze latency to the platform (sheet block Fig.2h): individual animals
# Method: To evaluate the spatial learning and memory ability of mice, the Morris water maze was performed after MCAO/R at 11, 12, 13, 14, and 15 days as described previously with minor modifications[66],[67]. […] Three trials were performed per day with the platform present and continuously detected for 4 days. Data from those trials were shown as the latency to locate the hidden platform on each day and were in indirect proportion to spatial learning abilities. A single 60 s probe test was performed on each mouse on the final day of testing. The platform was withdrawn and each mouse was placed at the same starting position in the pool and allowed to swim for 60 s. The investigator then recorded the time spent in the target quadrant, where the platform had previously been located. The latter measurements were interpreted as spatial memory.
# HT22 cells (OGD/R) [5] = assay: Intracellular ROS (DCFH-DA, flow cytometry); format: cell-based, mouse; conditions: 24-h pretreatment with VK
# HT22 cells (OGD/R) [6] = assay: Seahorse extracellular acidification rate (ECAR); format: cell-based, mouse; conditions: dose-dependent
# Method: HT22 cells were counted and plated at 8000 cells per well in a Seahorse XF96 Cell Culture Microplate for all experiments (Agilent). They were then treated with VK (0.0735 or 0.735 μM) for 24 h. […] Next, HT22 cells were washed after 24 h of incubation and were incubated in a 0% CO2 chamber at 37 °C for 1 h, before being placed into a Seahorse XFe96 Analyzer (Agilent). In OCR experiment, HT22 cells were treated, with 2 μM of oligomycin, 5 μM of FCCP, and 1 μM of rotenone and antimycin, respectively; to assess ECAR, they were treated with 1 μM of rotenone and antimycin and 50 mM of 2-DG. All OCR and ECAR data were normalized to cell number per well using WAVE (Agilent).
# [7] = test system: IL-1β, TNF-α, IL-6, IL-8, IL-10 in serum; assay: Cytokine ELISA in serum; format: in vivo, mouse; conditions: MCAO/R mice, 48 h
# Method: Mice were decapitated under anesthesia at 48 h after MCAO/R. The IL-1β (Cat# 88-5019-88), TNF-α (Cat# 88-7324-22), IL-6 (Cat# 88-7064-88), and IL-8 (Cat# 88-8086-22) were purchased from Thermo Fisher Scientific. The levels of these proteins were measured by enzyme-linked immune sorbent assays (ELISA) kits, according to the manufacturer’s recommendations.
# [8] = test system: microglia in brain of MCAO/R mice; assay: IBA1 staining of microglia (IHC, immunofluorescence); format: in vivo, mouse
# [9] = test system: pyramidal neurons of mouse neocortex; format: in vivo; conditions: for Fig.6g mEPSC amplitude per recorded neuron: individual values
# [10] = test system: HT22 hippocampal neuron cells; assay: CCK-8 cytotoxicity in HT22 cells; conditions: CCK8 assay
substance,measurement,setting,value
"Gly-Arg-Pro-Hyp-Gly-Phe-Ser-Pro-Phe-Arg-Ile-Asp [VK, Vespakinin-M]",karyopyknosis and cellular swelling of hepatocytes in liver,mice; VK 96 and 384 mg/kg single i.p.,moderate
same,"histopathology of brain, liver and kidney vs control","mice; all treated groups after 14 days, H&E",no changes at the cellular level
same,neurological deficits and infarct size vs vehicle (antagonist study),MCAO/R mice [1],attenuated neurological deficits and infarct size
same,"infarct volume, TTC staining",MCAO/R mice [1]; ip,decreased infarct volume
same,"area of cerebral infarction, MRI",MCAO/R mice [2],reduced the area of cerebral infarction
same,Longa test score (Fig.2e),"MCAO/R mice [3]; 0.5d, VK 150 µg/kg i.p., individual animals",4 and 3 (2×) and 2 (3×)
same,Longa test score (Fig.2e),"MCAO/R mice [3]; 0.5d, VK 300 µg/kg i.p., individual animals",2 (3×) and 3 (2×) and 4
same,Longa test score (Fig.2e),"MCAO/R mice [3]; 1d, VK 150 µg/kg i.p., individual animals",3 and 2 (3×) and 1 (2×)
same,Longa test score (Fig.2e),"MCAO/R mice [3]; 1d, VK 300 µg/kg i.p., individual animals",2 (3×) and 3 (2×) and 1
same,Longa test score (Fig.2e),"MCAO/R mice [3]; 3d, VK 150 µg/kg i.p., individual animals",2 (2×) and 1 (4×)
same,Longa test score (Fig.2e),"MCAO/R mice [3]; 3d, VK 300 µg/kg i.p., individual animals",1 (2×) and 2 (4×)
same,Longa test score (Fig.2e),"MCAO/R mice [3]; 7d, VK 150 µg/kg i.p., individual animals",2 and 1 (5×)
same,Longa test score (Fig.2e),"MCAO/R mice [3]; 7d, VK 300 µg/kg i.p., individual animals",1 (3×) and 2 (3×)
same,"neurological deficits, Longa test, vs vehicle","MCAO/R mice [3]; MCAO/R mice, VK 150 and 300 µg/kg i.p.",improved neurological deficits
same,Fig8g neurological score,"MCAO/R mice [3]; VK alone or with B1R / B2R blockade, individual animals, n = 5, score and time not given",1 and 2 and 0
same,Fig8f neurological score,"MCAO/R mice [3]; VK alone or with B1R / B2R blockade, individual animals, n = 6, score and time not given",1 and 2
same,Morris water maze latency to the platform (sheet block Fig.2h),"MCAO/R mice [4]; 11d after MCAO/R, VK 150 µg/kg, 60 s maximum",46.96 and 55.37 and 56.98 and 48.52 and 58.61 and 60 and 58.12
same,Morris water maze latency to the platform (sheet block Fig.2h),"MCAO/R mice [4]; 11d after MCAO/R, VK 300 µg/kg, 60 s maximum",51 and 55.8
same,Morris water maze latency to the platform (sheet block Fig.2h),"MCAO/R mice [4]; 12d after MCAO/R, VK 150 µg/kg",35.17 and 36.55 and 38.29 and 31.14 and 35.03 and 46.91 and 50.97
same,Morris water maze latency to the platform (sheet block Fig.2h),"MCAO/R mice [4]; 12d after MCAO/R, VK 300 µg/kg",43.25 and 49.34 and 39.87 and 44.13 and 49.62 and 33.65
same,Morris water maze latency to the platform (sheet block Fig.2h),"MCAO/R mice [4]; 13d after MCAO/R, VK 150 µg/kg",12.69 and 22.64 and 25.57 and 20.24 and 33.84 and 30.46 and 33.85
same,Morris water maze latency to the platform (sheet block Fig.2h),"MCAO/R mice [4]; 13d after MCAO/R, VK 300 µg/kg",24.06 and 46.35 and 29.58 and 38.44 and 42.39 and 44
same,Morris water maze latency to the platform (sheet block Fig.2h),"MCAO/R mice [4]; 14d after MCAO/R, VK 150 µg/kg",8.5 and 15.36 and 20.6 and 19.38 and 15.89 and 10.11 and 29.75
same,Morris water maze latency to the platform (sheet block Fig.2h),"MCAO/R mice [4]; 14d after MCAO/R, VK 300 µg/kg",18.28 and 40.48 and 16.15 and 23.59 and 39.68 and 25.37
same,"spatial learning, escape latency",MCAO/R mice [4]; day 11–14 after MCAO/R,decreased escape latency
same,"spatial memory, probe trial vs vehicle",MCAO/R mice [4]; day 15 after MCAO/R,more crossovers and spent more time in the platform quadrant
same,OGD-induced ROS levels,HT22 cells (OGD/R) [5],rescue the OGD-induced ROS levels
same,glycolysis (extracellular acidification rate) in neurons,HT22 cells (OGD/R) [6],decreased glycolysis
same,IL-10 level in serum vs vehicle,[7],increase in IL-10 levels
same,"IL-1β, TNF-α, IL-6 and IL-8 levels in the peripheral (serum) vs vehicle",[7]; VK 150 and 300 µg/kg,"decreased IL-1β, TNF-α, IL-6, and IL-8 levels"
same,I/R-induced elevation of IBA1 expression in cerebral cortex,[8],greatly blunted
same,action potential threshold of pyramidal neurons vs vehicle,[9]; 48 h after MCAO,higher action potential threshold
same,Fig.6g mEPSC amplitude per recorded neuron,"[9]; VK150, n = 14",19.084 pA and 16.328 pA and 11.543 pA and 20.277 pA and 16.752 pA and 17.611 pA and 14.33 pA and 14.518 pA and 18.178 pA and 20.574 pA and 16.408 pA and 17.172 pA and 18.064 pA and 16.721 pA
same,Fig.6g mEPSC amplitude per recorded neuron,"[9]; VK300, n = 18",16.409 pA and 16 pA and 15.374 pA and 15.042 pA and 15.977 pA and 15.473 pA and 16.722 pA and 19.242 pA and 17.388 pA and 16.685 pA and 16.328 pA and 14.712 pA and 16.978 pA and 16.137 pA and 19.209 pA and 18.238 pA and 16.732 pA and 16.833 pA
same,amplitude of mEPSCs,[9]; after stroke in mice,no obvious effects on the amplitude of mEPSCs
same,concentrations at which VK inhibited growth of HT22 cells,[10],73.5 to 735 µM

# — article PMC8776894 (Communications Biology, 2022)
